Data as given in article PMC10734772 (Turkish Journal of Chemistry, 2021).

Assays:
Format in all cases: cell-based
[1] = system: K562, Nalm-6, Molt-4, Reh, Jurkat, Hek293T cell lines; assay: MTT assay, overall judgement over all cell lines; details: overall judgement in words; for 6 and 10: on all cell lines, except Reh
How it was run: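 MTT viability assay run across a range of compound concentrations in leukemic lines, BCR-ABL positive K562 and BCR-ABL negative Nalm-6, Molt-4, Reh, Jurkat, plus non-leukemic Hek293T. Viability rate calculated per concentration.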

Reh = assay: MTT assay, Reh cells; details: Homo sapiens, 24 h, read-out: Viability rate
Nalm-6 = assay: MTT assay, Nalm-6 cells; details: Homo sapiens, 24 h
Jurkat = assay: MTT assay, Jurkat cells; details: Homo sapiens, 24 h, read-out: Viability rate
Molt-4 = assay: MTT assay, Molt-4 cells; details: Homo sapiens, MOLT-4, 24 h, read-out: Viability rate
K562 = assay: MTT assay, K562 cells; details: Homo sapiens, 24 h, MTT, read-out: Viability rate
[2] = MTT assay, Hek293T non-leukemic control cells; details: human, read-out: Viability rate

Compound: Cc1ccnc(Nc2cc(NC(=O)c3ccc(CN4CCOCC4)cc3)ccc2C)c1 [Compound 9, N-(4-Methyl-3-((4-methylpyridin-2-yl)amino)phenyl)-4-(morhpolinomethyl)benzamide]
- anticancer activity according to MTT assay results [1]: relatively lower activity
- viability at 0.3 µM (Reh; 0.3 μM): 103.8 ± 0.01%
- viability at 0.5 µM (Reh; 0.5 μM): 101.3 ± 0.03%
- viability at 1 µM (Reh; 1 μM): 100.4 ± 0.01%
- viability at 3 µM (Reh; 3 μM): 100.5 ± 0.02%
- viability at 5 µM (Reh; 5 μM): 101.8 ± 0.03%
- viability at 10 µM (Reh; 10 μM): 103.4 ± 0.02%
- viability at 15 µM (Reh; 15 μM): 100.2 ± 0.02%
- viability at 20 µM (Reh; 20 μM): 99 ± 0.02%
- viability at 30 µM (Reh; 30 μM): 91.4 ± 0.01%
- viability at 50 µM (Reh; 50 μM): 88.2 ± 0.02%
- viability at 70 µM (Reh; 70 μM): 84.7 ± 0.03%
- viability at 100 µM (Reh; 100 μM): 87.1 ± 0.02%
- viability at 150 µM (Reh; 150 μM): 85 ± 0.01%
- viability at 200 µM (Reh; 200 μM): 82 ± 0.02%
- viability at 0.3 µM (Nalm-6; Nalm-6, 0.3 μM, MTT, read-out: Viability rate): 86.4 ± 0.05%
- viability at 0.5 µM (Nalm-6; Nalm-6, 0.5 μM, MTT, read-out: Viability rate): 85.2 ± 0.05%
- viability at 1 µM (Nalm-6; Nalm-6, 1 μM, MTT, read-out: Viability rate): 72.7 ± 0.04%
- viability at 3 µM (Nalm-6; Nalm-6, 3 μM, MTT, read-out: Viability rate): 64.5 ± 0.02%
- viability at 5 µM (Nalm-6; Nalm-6, 5 μM, MTT, read-out: Viability rate): 62.6 ± 0.04%
- viability at 10 µM (Nalm-6; Nalm-6, 10 μM, MTT, read-out: Viability rate): 53.2 ± 0.03%
- viability at 15 µM (Nalm-6; Nalm-6, 15 μM, MTT, read-out: Viability rate): 50.1 ± 0.03%
- viability at 20 µM (Nalm-6; Nalm-6, 20 μM, MTT, read-out: Viability rate): 49.2 ± 0.01%
- viability at 30 µM (Nalm-6; Nalm-6, 30 μM, MTT, read-out: Viability rate): 48.1 ± 0.01%
- viability at 50 µM (Nalm-6; Nalm-6, 50 μM, MTT, read-out: Viability rate): 43.9 ± 0.01%
- viability at 70 µM (Nalm-6; Nalm-6, 70 μM, MTT, read-out: Viability rate): 42.8 ± 0.01%
- viability at 100 µM (Nalm-6; Nalm-6, 100 μM, MTT, read-out: Viability rate): 42.5 ± 0.01%
- viability at 150 µM (Nalm-6; Nalm-6, 150 μM, MTT, read-out: Viability rate): 42.5 ± 0.01%
- viability at 200 µM (Nalm-6; Nalm-6, 200 μM, MTT, read-out: Viability rate): 39.2%
- IC50 (Nalm-6; Nalm-6, MTT, range 0.3–200 μM, six replicates): 1640 nM
- viability at 0.3 µM (Jurkat; 0.3 μM): 82.3 ± 0.05%
- viability at 0.5 µM (Jurkat; 0.5 μM): 82 ± 0.06%
- viability at 1 µM (Jurkat; 1 μM): 82 ± 0.05%
- viability at 3 µM (Jurkat; 3 μM): 81.7 ± 0.05%
- viability at 5 µM (Jurkat; 5 μM): 83 ± 0.04%
- viability at 10 µM (Jurkat; 10 μM): 81.9 ± 0.02%
- viability at 15 µM (Jurkat; 15 μM): 80.4 ± 0.02%
- viability at 20 µM (Jurkat; 20 μM): 79 ± 0.04%
- viability at 30 µM (Jurkat; 30 μM): 72.9 ± 0.07%
- viability at 50 µM (Jurkat; 50 μM): 68.1 ± 0.01%
- viability at 70 µM (Jurkat; 70 μM): 65.1 ± 0.02%
- viability at 100 µM (Jurkat; 100 μM): 49.6 ± 0.07%
- viability at 150 µM (Jurkat; 150 μM): 46.9 ± 0.05%
- viability at 200 µM (Jurkat; 200 μM): 39.1 ± 0.04%
- viability at 0.3 µM (Molt-4; Molt-4, 0.3 μM): 93.2 ± 0.17%
- viability at 0.5 µM (Molt-4; Molt-4, 0.5 μM): 87.8 ± 0.05%
- viability at 1 µM (Molt-4; Molt-4, 1 μM): 78.4 ± 0.11%
- viability at 3 µM (Molt-4; Molt-4, 3 μM): 72.7 ± 0.04%
- viability at 5 µM (Molt-4; Molt-4, 5 μM): 71.7 ± 0.07%
- viability at 10 µM (Molt-4; Molt-4, 10 μM): 69.3 ± 0.04%
- viability at 15 µM (Molt-4; Molt-4, 15 μM): 68.9 ± 0.05%
- viability at 20 µM (Molt-4; Molt-4, 20 μM): 63.5 ± 0.04%
- viability at 30 µM (Molt-4; Molt-4, 30 μM): 62 ± 0.03%
- viability at 50 µM (Molt-4; Molt-4, 50 μM): 61.5 ± 0.07%
- viability at 70 µM (Molt-4; Molt-4, 70 μM): 59.8 ± 0.05%
- viability at 100 µM (Molt-4; Molt-4, 100 μM): 59.5 ± 0.08%
- viability at 150 µM (Molt-4; Molt-4, 150 μM): 58.6 ± 0.06%
- viability at 200 µM (Molt-4; Molt-4, 200 μM): 54.7 ± 0.03%
- viability at 0.3 µM (K562; K562, 0.3 μM): 79.9 ± 0.09%
- viability at 0.5 µM (K562; K562, 0.5 μM): 78.5 ± 0.03%
- viability at 1 µM (K562; K562, 1 μM): 77.3 ± 0.08%
- viability at 3 µM (K562; K562, 3 μM): 77 ± 0.04%
- viability at 5 µM (K562; K562, 5 μM): 75.4 ± 0.09%
- viability at 10 µM (K562; K562, 10 μM): 73.2 ± 0.08%
- viability at 15 µM (K562; K562, 15 μM): 72 ± 0.06%
- viability at 20 µM (K562; K562, 20 μM): 69.1 ± 0.03%
- viability at 30 µM (K562; K562, 30 μM): 69.7 ± 0.07%
- viability at 50 µM (K562; K562, 50 μM): 61.2 ± 0.08%
- viability at 70 µM (K562; K562, 70 μM): 58.1 ± 0.1%
- viability at 100 µM (K562; K562, 100 μM): 51.3 ± 0.06%
- viability at 150 µM (K562; K562, 150 μM): 49.7 ± 0.05%
- viability at 200 µM (K562; K562, 200 μM): 45%
- viability at 24 h, 0.3 µM ([2]; Hek293T cells (non-leukemic control cell line), 0.3 μM): 91.7 ± 0.07%
- viability at 24 h, 0.5 µM ([2]; Hek293T cells (non-leukemic control cell line), 0.5 μM): 89.8 ± 0.07%
- viability at 24 h, 3 µM ([2]; Hek293T cells (non-leukemic control cell line), 3 μM): 87.4 ± 0.07%
- viability at 24 h, 5 µM ([2]; Hek293T cells (non-leukemic control cell line), 5 μM): 86.2 ± 0.03%
- viability at 24 h, 10 µM ([2]; Hek293T cells (non-leukemic control cell line), 10 μM): 79.3 ± 0.05%
- viability at 24 h, 15 µM ([2]; Hek293T cells (non-leukemic control cell line), 15 μM): 78.3 ± 0.03%
- viability at 24 h, 20 µM ([2]; Hek293T cells (non-leukemic control cell line), 20 μM): 76.5 ± 0.05%
- viability at 24 h, 30 µM ([2]; Hek293T cells (non-leukemic control cell line), 30 μM): 68.9 ± 0.03%
- viability at 24 h, 50 µM ([2]; Hek293T cells (non-leukemic control cell line), 50 μM): 62.2 ± 0.02%
- viability at 24 h, 70 µM ([2]; Hek293T cells (non-leukemic control cell line), 70 μM): 56.2 ± 0.04%
- viability at 24 h, 100 µM ([2]; Hek293T cells (non-leukemic control cell line), 100 μM): 54.8 ± 0.02%
- viability at 24 h, 150 µM ([2]; Hek293T cells (non-leukemic control cell line), 150 μM): 46.9 ± 0.02%
- viability at 24 h, 200 µM ([2]; Hek293T cells (non-leukemic control cell line), 200 μM): 42.8 ± 0.02%
- viability at 24 h, 1 µM ([2]; Hek293T cells, 1 μM): 89.5 ± 0.05%
